The text below walks through data of US7528140B2, “Substituted pyrrolo[3,2-d]pyrimidines as glycogen synthase kinase (GSK) inhibitors” (Teijin Limited, priority 2002, dated 2009).

This experiment concerns the target recombinant human GSK-3β (Homo sapiens, UniProt P49841). Nature of the experiment: Measurement of GSK-3 enzyme activity inhibition (32P phosphorylation of phospho-glycogen synthase peptide-2). In kind it is biochemical. Particulars: 20 μM ATP, 20 minutes at room temperature, read-out: GSK-3 enzyme inhibiting activity (IC50). The protocol:
Measurement of GSK-3 Enzyme Activity Inhibition
After adding 25 μL of phospho-glycogen synthase peptide-2 substrate solution [6 μM phospho -glycogen synthase peptide-2, 20 μM ATP, 16 mM MOPS buffer (pH 7.0), 0.2 mM EDTA, 20 mM magnesium acetate, 0.1 μCi [γ-^32P]ATP (specific activity: approximately 110 TBq/mmol)]to 5 μL of the test compound using 5% dimethylsulfoxide as the solvent, reaction was initiated by further addition of 20 μL of a GSK-3β enzyme solution [10 mU recombinant human GSK-3β, 20 mM MOPS buffer (pH 7.0), 1 mM EDTA, 0.1% polyoxyethylene lauryl ether (23 Lauryl Ether; Brij 35), 5% glycerol, 0.1% β-mercaptoethanol]. After conducting the reaction for 20 minutes at room temperature, an equivalent volume of a 200 mM phosphoric acid solution was added to quench the reaction, and 90 μL of the reaction product was adsorbed onto a MultiScreen PH plate (Millipore) and rinsed with a 100 mM phosphoric acid solution. After drying the plate, 30 μL of Micro Scint-O (Packard BioScience) was added, and the cpm was measured with a scintillation counter to determine the inhibiting activity. Phospho GS Peptide2 is […]P)-Glu-Asp-Glu-Glu-Glu (SEQ ID NO:1).

As usually defined, the IC50 is the midpoint of a concentration-inhibition curve.

recombinant human GSK-3β, sequence (P49841 whole entry): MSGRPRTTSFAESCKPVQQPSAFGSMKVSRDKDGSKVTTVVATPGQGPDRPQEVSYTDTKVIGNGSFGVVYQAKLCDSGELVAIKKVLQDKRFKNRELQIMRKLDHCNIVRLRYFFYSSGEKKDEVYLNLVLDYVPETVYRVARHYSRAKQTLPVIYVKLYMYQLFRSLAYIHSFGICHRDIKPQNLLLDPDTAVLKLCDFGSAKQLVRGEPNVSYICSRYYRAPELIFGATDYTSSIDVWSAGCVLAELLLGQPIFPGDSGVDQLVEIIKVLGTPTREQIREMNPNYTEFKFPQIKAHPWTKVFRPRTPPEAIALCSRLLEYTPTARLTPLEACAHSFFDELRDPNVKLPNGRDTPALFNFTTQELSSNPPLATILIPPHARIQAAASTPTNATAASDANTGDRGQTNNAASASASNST

On to `N#Cc1c(C=Cc2ccccc2)[nH]c2c(=O)[nH]cnc12` [1-0006], for which the IC50 was in the range of 1 to 10 µM. In the case of `N#Cc1c(-c2ccccc2)[nH]c2c(=O)[nH]cnc12` [1-0007], the IC50 lay within 1 to 10 µM. Regarding `COc1ccccc1-c1[nH]c2c(=O)[nH]cnc2c1C#N` [1-0038, 6-(2-methoxyphenyl)-4-oxo-3-hydropyrrolo[3,2-d]pyrimidine-7-carbonitrile], the concentration for half-maximal inhibition (IC50) is 1 to 10 µM.

As for `CC(C)CCn1c(-c2ccccc2)c(C#N)c2nc[nH]c(=O)c21` [1-0113], the IC50 lay within 1 to 10 µM. With `CC(C)CCn1c(-c2ccccc2)c(C#N)c2nc[nH]c(=S)c21` [1-0114], the concentration for half-maximal inhibition (IC50) was 1 to 10 µM. As for `CC(C)(C)Cn1c(-c2ccccc2)c(C#N)c2nc[nH]c(=S)c21` [1-0129], the figure is 1 to 10 µM; as for `CCCCCn1c(-c2ccccc2)c(C#N)c2nc[nH]c(=O)c21` [1-0132], 1 to 10 µM. With `N#Cc1c(-c2ccccc2)n(CCCO)c2c(=O)[nH]cnc12` [1-0194], the half-maximal inhibitory concentration (IC50) lay in the range of 1 to 10 µM.

Take `COCCn1c(-c2ccccc2)c(C#N)c2nc[nH]c(=S)c21` [1-0208]: the IC50 lay within 1 to 10 µM.

As for `CCOCCn1c(-c2ccccc2)c(C#N)c2nc[nH]c(=S)c21` [1-0215], the IC50 lay within 1 to 10 µM.

Consider `COCCCn1c(-c2ccccc2)c(C#N)c2nc[nH]c(=O)c21` [1-0227], for which the IC50 was 1 to 10 µM. For `CSCCCn1c(-c2ccccc2)c(C#N)c2nc[nH]c(=O)c21` [1-0263], the half-maximal inhibitory concentration (IC50) lay within 1 to 10 µM.

With `N#Cc1c(-c2ccccc2)n(CC2CC2)c2c(=S)[nH]cnc12` [1-0275], the concentration for half-maximal inhibition (IC50) lay in the range of 1 to 10 µM.

As for `N#Cc1cn(Cc2ccccc2)c2c(=S)[nH]cnc12` [1-0301], the concentration for half-maximal inhibition (IC50) was 1 to 10 µM. The result for `N#Cc1c(C2CC2)n(Cc2ccccc2)c2c(=O)[nH]cnc12` [1-0303] reads 1 to 10 µM; that for `N#Cc1c(-c2ccccc2)n(CCc2ccccc2)c2c(=S)[nH]cnc12` [1-0312], 1 to 10 µM.

As to `N#Cc1c(-c2ccccc2)n(CCCc2ccccc2)c2c(=O)[nH]cnc12` [1-0320], the half-maximal inhibitory concentration (IC50) is 1 to 10 µM. As for `Cc1c(C#N)c2nc[nH]c(=S)c2n1CCCc1ccccc1` [1-0323], the figure is 1 to 10 µM; as for `N#Cc1c(-c2ccccc2)n(CCOc2ccccc2)c2c(=S)[nH]cnc12` [1-0372], 1 to 10 µM.

Regarding `Cn1cccc1-c1c(C#N)c2nc[nH]c(=S)c2n1CCN` [1-0459, 5-(2-aminoethyl)-6-(1-methylpyrrol-2-yl)-4-thioxo-3-hydropyrrolo[3,2-d]pyrimidine-7-carbonitrile], the IC50 was in the range of 1 to 10 µM. In the case of `N#Cc1c(-c2c(F)cccc2F)n(CCN)c2c(=S)[nH]cnc12` [1-0460, 5-(2-aminoethyl)-6-(2,6-difluorophenyl)-4-thioxo-3-hydropyrrolo[3,2-d]pyrimidine-7-carbonitrile], the IC50 lay in the range of 1 to 10 µM. Regarding `N#Cc1c(-c2ccccc2)n(CCc2nc(-c3ccccc3)no2)c2c(=S)[nH]cnc12` [1-0495, 6-phenyl-5-[2-(3-phenyl(1,2,4-oxadiazol-5-yl))ethyl]-4-thioxo-3-hydropyrrolo[3,2-d]pyrimidine-7-carbonitrile], the IC50 lay in the range of 1 to 10 µM. As for `N#Cc1c(-c2ccccc2)n(CCN2C(=O)c3ccccc3C2=O)c2c(=S)[nH]cnc12` [1-0501, 5-[2-(1,3-dioxoisoindolin-2-yl)ethyl]-6-phenyl-4-thioxo-3-hydropyrrolo[3,2-d]pyrimidine-7-carbonitrile], the figure is 1 to 10 µM. For the molecule `CC(C)OCCCn1c(-c2cc(O)cc(O)c2)c(C#N)c2nc[nH]c(=S)c21` [1-0529, 6-(3,5-dihydroxyphenyl)-5-[3-(methylethoxy)propyl]-4-thioxo-3-hydropyrrolo[3,2-d]pyrimidine-7-carbonitrile], the concentration for half-maximal inhibition (IC50) was 0.01 to 0.03 µM. In the case of `N#Cc1c(-c2ccccc2)n(CCCOc2ccccc2)c2c(=S)[nH]cnc12` [1-0537], the half-inhibitory concentration (IC50) was in the range of 1 to 10 µM.

In the case of `N#Cc1c(-c2cccc(C(=O)O)c2)[nH]c2c(=S)[nH]cnc12` [1-0687, 3-(7-cyano-4-thioxo-3-hydropyrrolo[4,5-d]pyrimidin-6-yl)benzoic acid], the IC50 is 1 to 10 µM.

With `N#Cc1c(-c2cccc(O)c2)[nH]c2c(=S)[nH]cnc12` [1-0698, 6-(3-hydroxyphenyl)-4-thioxo-3-hydropyrrolo[3,2-d]pyrimidine-7-carbonitrile], the IC50 is 0.01 to 0.03 µM. With `N#Cc1c(-c2ccccc2Br)[nH]c2c(=S)[nH]cnc12` [1-0751, 6-(2-bromophenyl)-4-thioxo-3-hydropyrrolo[3,2-d]pyrimidine-7-carbonitrile], the IC50 was in the range of 0.03 to 0.1 µM.

As for `N#Cc1c(-c2ccccc2N)[nH]c2c(=S)[nH]cnc12` [1-0753, 6-(2-aminophenyl)-4-thioxo-3-hydropyrrolo[3,2-d]pyrimidine-7-carbonitrile], the half-maximal inhibitory concentration (IC50) lay within 1 to 10 µM. For `N#Cc1c(-c2ccccc2Br)[nH]c2c(=O)[nH]cnc12` [1-1040, 6-(2-bromophenyl)-4-oxo-3-hydropyrrolo[3,2-d]pyrimidine-7-carbonitrile], the IC50 is 1 to 10 µM.

In the case of `CC(C)(C)OC(=O)NCCCn1c(-c2ccccc2)c(C#N)c2nc[nH]c(=O)c21` [2-0208], the half-inhibitory concentration (IC50) was in the range of 1 to 10 µM. Regarding `CC(=O)OCCCn1c(-c2ccccc2)c(C#N)c2nc[nH]c(=O)c21` [2-0519], the half-maximal inhibitory concentration (IC50) fell in the range of 1 to 10 µM. For the molecule `N#Cc1c(-c2ccccc2)n(CCCOC(=O)c2ccco2)c2c(=O)[nH]cnc12` [2-0530], the IC50 fell in the range of 1 to 10 µM. Consider `N#Cc1c(-c2ccccc2)n(CCNC(=O)c2ccccc2)c2c(=S)[nH]cnc12` [2-0558], for which the IC50 was 0.03 to 0.1 µM. Regarding `Cc1ccoc1-c1c(C#N)c2nc[nH]c(=S)c2n1CCNC(=O)C(F)(F)F` [2-0601, N-{2-[7-cyano-6-(3-methyl(2-furyl))-4-thioxo(3-hydropyrrolo[3,2-d]pyrimidin-5-yl)]ethyl}-2,2,2-trifluoroacetamide], the half-maximal inhibitory concentration (IC50) lay in the range of 0.01 to 0.03 µM.

On to `Cn1cccc1-c1c(C#N)c2nc[nH]c(=S)c2n1CCNC(=O)C(F)(F)F` [2-0604, N-{2-[7-cyano-6-(1-methylpyrrol-2-yl)-4-thioxo(3-hydropyrrolo[3,2-d]pyrimidin-5-yl)]ethyl}-2,2,2-trifluoroacetamide], for which the 50% inhibitory concentration (IC50) is 0.03 to 0.1 µM.

For `Cc1ccc(N)c(C(=O)NCCn2c(-c3ccccc3)c(C#N)c3nc[nH]c(=S)c32)c1` [2-0635, (2-amino-5-methylphenyl)-N-[2-(7-cyano-6-phenyl-4-thioxo(3-hydropyrrolo[3,2-d]pyrimidin-5-yl))ethyl]carboxamide], the IC50 is 0.03 to 0.1 µM.

For the molecule `Cc1ccoc1-c1c(C#N)c2nc[nH]c(=O)c2n1CCNC(=O)C(F)(F)F` [2-1664, N-{2-[7-cyano-6-(3-methyl(2-furyl))-4-oxo(3-hydropyrrolo[3,2-d]pyrimidin-5-yl)]ethyl}-2,2,2-trifluoroacetamide], the IC50 is 1 to 10 µM. Regarding `N#Cc1c(-c2ccccc2)n(CCNCc2ccccc2)c2c(=S)[nH]cnc12` [2-1775, 6-phenyl-5-{2-[benzylamino]ethyl}-4-thioxo-3-hydropyrrolo[3,2-d]pyrimidine-7-carbonitrile], the IC50 fell in the range of 1 to 10 µM. For `N#Cc1c(-c2ccccc2)n(CCNC(=O)Nc2cccc(C(=O)O)c2)c2c(=S)[nH]cnc12` [2-1777, 3-({N-[2-(7-cyano-6-phenyl-4-thioxo-3-hydropyrrolo[3,2-d]pyrimidin-5-yl)ethyl]carbamoyl}amino)benzoic acid], the half-maximal inhibitory concentration (IC50) was in the range of 0.03 to 0.1 µM. The result for `N#Cc1c(-c2ccco2)n(CCNC(=O)C(F)(F)F)c2c(=S)[nH]cnc12` [2-1804, N-[2-(7-cyano-6-(2-furyl)-4-thioxo(3-hydropyrrolo[3,2-d]pyrimidin-5-yl))ethyl]-2,2,2-trifluoroacetamide] reads 0.03 to 0.1 µM; that for `N#Cc1c(-c2ccccc2)n(CCn2c(=O)[nH]c3ccccc3c2=O)c2c(=S)[nH]cnc12` [2-1849, 5-[2-(2,4-dioxo(1,3-dihydroquinazolin-3-yl))ethyl]-6-phenyl-4-thioxo-3-hydropyrrolo[3,2-d]pyrimidine-7-carbonitrile], 1 to 10 µM.

`CN(CCn1c(-c2ccccc2)c(C#N)c2nc[nH]c(=S)c21)C(=O)C(F)(F)F` [2-1855]: the IC50 was in the range of 0.03 to 0.1 µM. The result for `CN(C(=O)CCn1c(-c2ccccc2)c(C#N)c2nc[nH]c(=S)c21)c1ccccc1` [3-0099] reads 1 to 10 µM; that for `N#Cc1c(-c2ccccc2)n(CCC(=O)N2CCCC2)c2c(=S)[nH]cnc12` [3-0148], 0.03 to 0.1 µM; that for `N#Cc1c(-c2ccccc2)n(CCC(=O)N2CCCCC2)c2c(=S)[nH]cnc12` [3-0152], less than 0.01 µM.

As for `N#Cc1c(-c2ccco2)n(CCC(=O)N2CCCCC2)c2c(=S)[nH]cnc12` [3-0156], the 50% inhibitory concentration (IC50) was less than 0.01 µM.

Take `N#Cc1c(-c2ccccc2)n(CCC(=O)N2CCC(C(=O)O)CC2)c2c(=S)[nH]cnc12` [3-0231, 1-[3-(7-cyano-6-phenyl-4-thioxo-3-hydropyrrolo[3,2-d]pyrimidin-5-yl)propanoyl]piperidine-4-carboxylic acid]: the half-inhibitory concentration (IC50) is less than 0.01 µM.

As for `N#Cc1c(-c2ccccc2)n(CCC(=O)N2CCOCC2)c2c(=S)[nH]cnc12` [3-0294], the 50% inhibitory concentration (IC50) lay in the range of 0.03 to 0.1 µM. The result for `CCNC(=O)CCn1c(-c2ccccc2)c(C#N)c2nc[nH]c(=S)c21` [3-1792] reads 0.03 to 0.1 µM. Regarding `CCOC(=O)CCn1c(-c2ccccc2)c(C#N)c2nc[nH]c(=S)c21` [4-0005, ethyl 3-(7-cyano-6-phenyl-4-thioxo-3-hydropyrrolo[3,2-d]pyrimidin-5-yl)propanoate], the IC50 lay within 1 to 10 µM.

With `CCOC(=O)CCCn1c(-c2ccccc2)c(C#N)c2nc[nH]c(=O)c21` [4-0030], the concentration for half-maximal inhibition (IC50) is 1 to 10 µM.
